Reference: ChEMBL document CHEMBL1201862, “PubChem BioAssay data set” (2004)
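Interpolation was linear, between the two tested concentrations surrounding the appropriate level; five concentrations were tested over 48 hours in 96-well plates. Here, GI50 denotes the concentration required for 50% inhibition of growth.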 Active and inactive are the calls of the source. No stated cut-off is given here; in the data, active = GI50 up to about 1.1 µM and inactive = higher.

What was measured:
Test in all cases: NCI-60 cell line screen, 48 h
M19-MEL = tested on: M19-MEL
NCI-H23 = tested on: NCI-H23
OVCAR-3 = tested on: OVCAR-3
UACC-257 = tested on: UACC-257
SR = tested on: SR
SNB-75 = tested on: SNB-75
LXFL 529 = tested on: LXFL 529
RXF 393 = tested on: RXF 393
CCRF-CEM = tested on: CCRF-CEM
MOLT-4 = tested on: MOLT-4
Malme-3M = tested on: Malme-3M
M14 = tested on: M14
UO-31 = tested on: UO-31
SW-620 = tested on: SW-620
HL-60 = tested on: HL-60
SN12C = tested on: SN12C
A498 = tested on: A498
SK-MEL-28 = tested on: SK-MEL-28
EKVX = tested on: EKVX
COLO 205 = tested on: COLO 205
SK-OV-3 = tested on: SK-OV-3
HCT-116 = tested on: HCT-116
HOP-18 = tested on: HOP-18
ACHN = tested on: ACHN
HOP-62 = tested on: HOP-62
IGROV-1 = tested on: IGROV-1
SF-268 = tested on: SF-268
U-251 = tested on: U-251
SK-MEL-2 = tested on: SK-MEL-2
OVCAR-4 = tested on: OVCAR-4
DLD-1 = tested on: DLD-1
HOP-92 = tested on: HOP-92
SNB-78 = tested on: SNB-78
HT-29 = tested on: HT-29
NCI-H460 = tested on: NCI-H460
NCI-H522 = tested on: NCI-H522
HCT-15 = tested on: HCT-15
OVCAR-8 = tested on: OVCAR-8
XF498 = tested on: XF498
A549 = tested on: A549
SNB-19 = tested on: SNB-19
KM12 = tested on: KM12
DMS-114 = tested on: DMS-114
CAKI-1 = tested on: CAKI-1
786-0 = tested on: 786-0
UACC-62 = tested on: UACC-62
OVCAR-5 = tested on: OVCAR-5
LOX IMVI = tested on: LOX IMVI
SF-539 = tested on: SF-539
K562 = tested on: K562
SK-MEL-5 = tested on: SK-MEL-5
TK-10 = tested on: TK-10
SF-295 = tested on: SF-295
DMS-273 = tested on: DMS-273
NCI-H226 = tested on: NCI-H226
HCC 2998 = tested on: HCC 2998
KM-20L2 = tested on: KM-20L2
RPMI-8226 = tested on: RPMI-8226

Q: What does the source list for `O=C1NC2(CCCCC2)C2=C1CCCCC2`?
A: GI50 (M19-MEL): > 100 µM (inactive); GI50 (NCI-H23): > 100 µM (inactive); GI50 (OVCAR-3): > 100 µM (inactive); GI50 (UACC-257): > 100 µM (inactive); GI50 (SR): > 100 µM (inactive); GI50 (SNB-75): > 100 µM (inactive); GI50 (LXFL 529): > 100 µM (inactive); GI50 (RXF 393): > 100 µM (inactive); GI50 (CCRF-CEM): > 100 µM (inactive); GI50 (MOLT-4): > 100 µM (inactive); GI50 (Malme-3M): > 100 µM (inactive); GI50 (M14): > 100 µM (inactive); GI50 (UO-31): > 100 µM (inactive); GI50 (SW-620): > 100 µM (inactive); GI50 (HL-60): > 100 µM (inactive); GI50 (SN12C): > 100 µM (inactive); GI50 (A498): > 100 µM (inactive); GI50 (SK-MEL-28): > 100 µM (inactive); GI50 (EKVX): > 100 µM (inactive); GI50 (COLO 205): > 100 µM (inactive); GI50 (SK-OV-3): > 100 µM (inactive); GI50 (HCT-116): > 100 µM (inactive); GI50 (HOP-18): > 100 µM (inactive); GI50 (ACHN): > 100 µM (inactive); GI50 (HOP-62): > 100 µM (inactive); GI50 (IGROV-1): > 100 µM (inactive); GI50 (SF-268): > 100 µM (inactive); GI50 (U-251): > 100 µM (inactive); GI50 (SK-MEL-2): > 100 µM (inactive); GI50 (OVCAR-4): > 100 µM (inactive); GI50 (DLD-1): > 100 µM (inactive); GI50 (HOP-92): > 100 µM (inactive); GI50 (SNB-78): > 100 µM (inactive); GI50 (HT-29): > 100 µM (inactive); GI50 (NCI-H460): > 100 µM (inactive); GI50 (NCI-H522): > 100 µM (inactive); GI50 (HCT-15): > 100 µM; GI50 (OVCAR-8): > 100 µM (inactive); GI50 (XF498): > 100 µM (inactive); GI50 (A549): > 100 µM (inactive); GI50 (SNB-19): > 100 µM (inactive); GI50 (KM12): > 100 µM (inactive); GI50 (DMS-114): > 100 µM (inactive); GI50 (CAKI-1): > 100 µM (inactive); GI50 (786-0): > 100 µM (inactive); GI50 (UACC-62): > 100 µM (inactive); GI50 (OVCAR-5): > 100 µM (inactive); GI50 (LOX IMVI): > 100 µM (inactive); GI50 (SF-539): > 100 µM (inactive); GI50 (K562): > 100 µM (inactive); GI50 (SK-MEL-5): > 100 µM (inactive); GI50 (TK-10): > 100 µM (inactive); GI50 (SF-295): > 100 µM (inactive); GI50 (DMS-273): > 100 µM (inactive)

Q: For `CC(=O)/C=C/c1ccc(C2CC(C)=Nc3c(ccc4c3C(=O)c3ccccc3C4=O)N2)cc1` (stereo not given), which GI50 (M19-MEL) is on record?
A: > 62.5 µM (inactive)

Q: And the GI50 (NCI-H23)?
A: > 67.3 µM (inactive)

Q: What about the GI50 (OVCAR-3) of the same compound?
A: > 93.8 µM (inactive)

Q: What about the GI50 (SR) of the same compound?
A: > 100 µM (inactive)

Q: What about the GI50 (SNB-75) of the same compound?
A: 14.8 µM (inactive)

Q: And the GI50 (RXF 393)?
A: 92 µM (inactive)

Q: And the GI50 (CCRF-CEM)?
A: 1.28 µM (inactive)

Q: What about the GI50 (MOLT-4) of the same compound?
A: > 100 µM (inactive)

Q: And the GI50 (Malme-3M)?
A: 89.1 µM (inactive)

Q: And the GI50 (NCI-H226)?
A: 32.2 µM (inactive)

Q: What about the GI50 (M14) of the same compound?
A: 77.3 µM (inactive)

Q: What about the GI50 (HCC 2998) of the same compound?
A: > 100 µM (inactive)

Q: What about the GI50 (UO-31) of the same compound?
A: 4.88 µM (inactive)

Q: What about the GI50 (SW-620) of the same compound?
A: 38.5 µM (inactive)

Q: And the GI50 (HL-60)?
A: 0.944 µM (active)

Q: And the GI50 (SN12C)?
A: > 81.5 µM (inactive)

Q: And the GI50 (A498)?
A: 33.3 µM (inactive)

Q: And the GI50 (SK-MEL-28)?
A: > 100 µM (inactive)

Q: What about the GI50 (EKVX) of the same compound?
A: 27.3 µM (inactive)

Q: What about the GI50 (COLO 205) of the same compound?
A: 60.7 µM (inactive)

Q: And the GI50 (SK-OV-3)?
A: 15.9 µM (inactive)

Q: And the GI50 (HCT-116)?
A: 33 µM (inactive)

Q: What about the GI50 (HOP-18) of the same compound?
A: > 80.9 µM (inactive)

Q: What about the GI50 (ACHN) of the same compound?
A: 19 µM (inactive)

Q: What about the GI50 (HOP-62) of the same compound?
A: 58.1 µM (inactive)

Q: What about the GI50 (IGROV-1) of the same compound?
A: 9.12 µM (inactive)

Q: What about the GI50 (SF-268) of the same compound?
A: > 71 µM (inactive)

Q: What about the GI50 (U-251) of the same compound?
A: 59.7 µM (inactive)

Q: And the GI50 (SK-MEL-2)?
A: > 29.6 µM (inactive)

Q: What about the GI50 (OVCAR-4) of the same compound?
A: > 85.9 µM (inactive)

Q: What about the GI50 (DLD-1) of the same compound?
A: 24.7 µM (inactive)

Q: And the GI50 (HOP-92)?
A: 28.2 µM (inactive)

Q: What about the GI50 (SNB-78) of the same compound?
A: > 100 µM (inactive)

Q: What about the GI50 (KM-20L2) of the same compound?
A: > 100 µM (inactive)

Q: What about the GI50 (HT-29) of the same compound?
A: > 100 µM (inactive)

Q: And the GI50 (NCI-H460)?
A: 30 µM (inactive)

Q: And the GI50 (NCI-H522)?
A: > 20 µM (inactive)

Q: What about the GI50 (HCT-15) of the same compound?
A: 27.2 µM

Q: And the GI50 (OVCAR-8)?
A: 28.2 µM (inactive)

Q: And the GI50 (XF498)?
A: > 100 µM (inactive)

Q: What about the GI50 (A549) of the same compound?
A: > 40.1 µM (inactive)

Q: What about the GI50 (SNB-19) of the same compound?
A: > 100 µM (inactive)

Q: What about the GI50 (KM12) of the same compound?
A: 3.37 µM (inactive)

Q: What about the GI50 (RPMI-8226) of the same compound?
A: > 52.4 µM (inactive)

Q: And the GI50 (DMS-114)?
A: 34.9 µM (inactive)

Q: What about the GI50 (CAKI-1) of the same compound?
A: 6.98 µM (inactive)

Q: And the GI50 (786-0)?
A: 54.6 µM (inactive)

Q: And the GI50 (UACC-62)?
A: 59.7 µM (inactive)

Q: What about the GI50 (OVCAR-5) of the same compound?
A: > 86.5 µM (inactive)

Q: What about the GI50 (LOX IMVI) of the same compound?
A: 8.83 µM (inactive)

Q: What about the GI50 (SF-539) of the same compound?
A: 63.8 µM (inactive)

Q: And the GI50 (K562)?
A: > 57.5 µM (inactive)

Q: And the GI50 (SK-MEL-5)?
A: 86.5 µM (inactive)

Q: And the GI50 (TK-10)?
A: 8.89 µM (inactive)

Q: And the GI50 (SF-295)?
A: > 100 µM (inactive)

Q: What about the GI50 (DMS-273) of the same compound?
A: 66.1 µM (inactive)
